From PubChem BioAssay (NCI)
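Five concentrations, 48 hours, 96-well plates. GI50 = concentration required for 50% inhibition of growth. TGI denotes the concentration required for complete inhibition of growth.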

Legend:
Assay in all cases: growth of human tumour cells (NCI), 48 h
SF-539 CNS = tested on: SF-539 CNS
IGROV1 ovarian = tested on: IGROV1 ovarian
A498 renal = tested on: A498 renal
RPMI-8226 leukemia = tested on: RPMI-8226 leukemia
T-47D breast = tested on: T-47D breast
SW-620 colon = tested on: SW-620 colon
786-0 renal = tested on: 786-0 renal
UACC-257 melanoma = tested on: UACC-257 melanoma
RXF 393 renal = tested on: RXF 393 renal
K-562 leukemia = tested on: K-562 leukemia

Structure (SMILES)	GI50 (SF-539 CNS) [µM]	TGI (SF-539 CNS) [µM]	GI50 (IGROV1 ovarian) [µM]	TGI (IGROV1 ovarian) [µM]	GI50 (A498 renal) [µM]	TGI (A498 renal) [µM]	GI50 (RPMI-8226 leukemia) [µM]	TGI (RPMI-8226 leukemia) [µM]	GI50 (T-47D breast) [µM]	TGI (T-47D breast) [µM]	GI50 (SW-620 colon) [µM]	TGI (SW-620 colon) [µM]	GI50 (786-0 renal) [µM]	TGI (786-0 renal) [µM]	GI50 (UACC-257 melanoma) [µM]	TGI (UACC-257 melanoma) [µM]	GI50 (RXF 393 renal) [µM]	TGI (RXF 393 renal) [µM]	GI50 (K-562 leukemia) [µM]	TGI (K-562 leukemia) [µM]
CCCCCCCCCCCCCC1=NC(C)(C)CN1C(C)C	1.65	3.01	1.08	2.26	2.16	4.58	1.2	3.03	1.84	3.8	1.58	2.92	1.72	3.13	1.92	3.39	1.62	3.11		
COc1cc2nc(-c3ccc(Cl)cc3)cc(OCCCN3CCCCC3)c2cc1OC			0.838	> 100	1.4	3.82			1.31	> 100	3.09	> 100	2.62	> 100	1.92	4.46	1.08	3.9		
C=CCCCCC/C=C\[C@H](O)C#CC#C/C=C/CO	58.2	> 100	19.4	53.7	20.3	51.9	14	32.2	98.4	> 100	27	78.5	29.3	82.2	78.9	> 100	34.5	> 100		
CCN(CC)c1ccc2c(c1)OC(N)=C(C#N)C2c1cc(OC)c2c(c1)OCO2 (stereo not drawn)	0.0271	0.0806	0.104	33.7	0.0201	0.0809	0.0474	2.51	3.32	22	0.0354	> 48.9	0.0438	3.16	0.312	14.5			< 0.0175	4.32
Cn1cc(CO)c2c1C(=O)C=C(N1CC1)C2=O	< 0.01	< 0.01	< 0.0104	1.8			< 0.01	0.192	0.353	7.81	< 0.01	> 31.6	< 0.01	0.108	0.0198	0.0692	< 0.0305	0.914	0.0224	11.1
C=C1C(=O)OC2CCN3CC=C(COC(=O)C(C)(O)C4(CO4)C1C)C23 (stereo not drawn)				> 100		> 100				> 100		> 100		> 100		> 100		> 100		> 100
COc1ccc(/C=C(/C(=O)N2CCN(c3ccccc3)CC2)c2cc(OC)c(OC)c(OC)c2)cc1O	0.205	0.708	0.519	> 100	0.211	1.92	0.374	21.4	51.3	> 100	0.468	> 100	4.1	> 100	30.6	> 100			0.296	> 100
N#Cc1c(NN)n(C2OC(CO)C(O)C2O)c2ncnc(N)c12 (stereo not drawn)	0.337	1.48	0.057	0.348			0.105	0.614	0.0191	0.118	0.0254	1.18	0.228	4.77	0.267	1.66	0.0398	0.415	0.0181	0.176
CN1CCN(CCOc2ccc(-c3cnc4c(-c5ccccc5F)cnn4c3)cc2)CC1	1.59	2.96	1.81	3.58	1.43	2.9	1.57	5.44	1.38	3.93	1.77	3.26	1.78	3.29	1.87	3.41	1.72	3.29		
C=COCCCOc1ccccc1		> 100			> 100	> 100		> 100	> 100	> 100		> 100	> 100	> 100	> 100	> 100		> 100		> 100
O=S1(=O)C[C@H](O)[C@H](O)CS1		> 100		> 100		> 100		> 100				> 100		> 100		> 100		> 100		> 100
COC(=O)C1=C(O)c2cc(OC)c(OC)cc2C(c2ccc(OC)c(OC)c2)C1 (stereo not drawn)		> 100		> 100		98.2		> 100				> 100		> 100		> 100		> 100		> 100
COC1(OC)CC2C(=O)N(Cc3ccccc3)C1C(S(=O)(=O)c1ccccc1)C2S(=O)(=O)c1ccccc1 (stereo not drawn)		27.3		32.3		58.2		45.5				13.6		30.7		21.1		25.6		46.2
O=C(O)CCC(=O)c1ccc[nH]1		> 100		> 100		> 100		> 100		> 100				> 100		> 100		> 100		> 100
CCCCC(C(=O)C(=O)NC1C2CC3CC(C2)CC1C3)C(=O)C(C)C (stereo not drawn)		> 100		> 100		> 100		> 100				> 100		> 100		> 100		> 100		> 100
NC(=Nc1c([N+](=O)[O-])cnc2ccccc12)N1CCOCC1		> 100		> 100		> 100		> 100		> 100		> 100		> 100						> 100
Cc1nn(-c2ccccc2)c2nc(N3CCOCC3)nnc12		> 100		> 100		> 100		> 100				> 100		> 100		> 100		> 100		> 100
